According to US20110218343A1, “SMALL MOLECULE INHIBITORS OF ROTAMASE ENZYME ACTIVITY” (GLIAMED, INC., priority 1995, published 2011):
Blank lines part the entries; values can stand above or below the compound they belong to.

How the values were obtained:
[1] = system: chick dorsal root ganglia (DRG) explants; experiment: Neurite outgrowth in chick dorsal root ganglion cultures; type: cell-based; conditions: whole ganglion explants from ten day chick embryos; neurites counted 48 hours after drug treatment
Experimental: Dorsal root ganglia were dissected from chick embryos of ten day gestation. Whole ganglion explants were cultured on thin layer Matrigel-coated 12 well plates with Liebovitz L15 plus high glucose media supplemented with 2 mM glutamine and 10% fetal calf serum, and also containing 10 μM cytosine .β-D arabinofuranoside (Ara C) at 37° C. in an environment containing 5% CO2. Twenty-four hours later, the DRGs were treated with various concentrations of nerve growth factor, immunophilin ligands or combinations of NFG plus drugs. Forty-eight hours after drug treatment, the ganglia were visualized under phase contrast or Hoffman Modulation contrast with a Zeiss Axiovert inverted microscope. Photomicrographs of the explants were made, and neurite outgrowth was quantitated. Neurites longer than the DRG diameter were counted as positive, with total number of neurites quantitated per each experimental condition. Three to four DRGs are cultured per well, and each treatment was performed in duplicate.

FKBP = FKBP (Homo sapiens, UniProt P62942); experiment: FKBP rotamase (peptidyl-prolyl isomerase) inhibition, chymotrypsin-coupled assay; type: biochemical; conditions: apparent Ki; cis-trans isomerization of model substrate N-succinyl-Ala-Ala-Pro-Phe-p-nitroanilide, absorbance at 390 nm
FKBP, sequence (P62942 whole entry): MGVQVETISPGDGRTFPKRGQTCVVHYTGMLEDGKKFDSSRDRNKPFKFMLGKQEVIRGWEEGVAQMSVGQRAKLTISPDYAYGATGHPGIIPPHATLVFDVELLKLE

Structure (SMILES): CCC(C)(C)C(=O)C(=O)N1CCC[C@H]1C(=O)OCCCc1ccccc1 [Example 4, 3-phenyl-1-propyl(2S)-1-(3,3-dimethyl-1,2-dioxopentyl)-2-pyrrolidinecarboxylate]
- ED50 (Neurite Outgrowth in Chick DRG) [1]: 53 nM

Structure (SMILES): CCC(C)(C)C(=O)C(=O)N1CCC[C@H]1C(=O)OCCCc1cc(OC)c(OC)c(OC)c1 [Example 6, 3-(3,4,5-Trimethoxyphenyl)-1-propyl(2S)-1-(3,3-dimethyl-1,2-dioxopentyl)-2-pyrrolidinecarboxylate]
- ED50 (Neurite Outgrowth in Chick DRG) [1]: 149 nM

Structure (SMILES): CCC(C)(C)C(=O)C(=O)N1CCC[C@H]1C(=O)OC/C=C/c1cc(OC)c(OC)c(OC)c1 [Example 7, 3-(3,4,5-Trimethoxyphenyl)-1-prop-2-(E)-enyl(2S)-1-(3,3-dimethyl-1,2-dioxopentyl)-2-pyrrolidinecarboxylate]
- ED50 (Neurite Outgrowth in Chick DRG) [1]: 190 nM

Structure (SMILES): CCC(C)(C)C(=O)C(=O)N1CCC[C@H]1C(=O)OC/C=C/c1ccc(Cl)c(Cl)c1 [Example 8, 3-(4,5-Dichlorophenyl)-1-prop-2-(E)-enyl(2S) -1-(3,3-dimethyl-1,2-dioxopentyl)-2-pyrrolidinecarboxylate]
- ED50 (Neurite Outgrowth in Chick DRG) [1]: 850 nM

Structure (SMILES): CCC(C)(C)C(=O)C(=O)N1CCC[C@H]1C(=O)OC/C=C/c1ccc2c(c1)OCO2 [Example 9, 3-(4,5-Methylenedioxyphenyl)-1-prop-2-(E)-enyl(2S)-1-(3,3-dimethyl-1,2-dioxopentyl)-2-pyrrolidinecarboxylate]
- ED50 (Neurite Outgrowth in Chick DRG) [1]: 75 nM

- Ki (FKBP): 9000 nM
Structure (SMILES): CCOC(=O)[C@H](Cc1ccccc1)NC(=O)[C@@H]1CCCN1C(=O)C(=O)C(C)(C)CC [Example 24, 1-[1-(3,3-dimethyl-1,2-dioxopentyl)-L-proline]-L-phenylalanine ethyl ester]
